According to paper PMC12977544, “Phenotypic high-throughput screening identifies modulators of gut microbial choline metabolism” (mBio, 2026):

Tests used:
[1] = tested on: germ-free C57BL/6 mice colonized with defined community incl. E. coli MS 200-1; assay: Serum TMAO in gnotobiotic mice after inhibitor treatment; assay type: in vivo, Mus musculus C57BL/6
Description: One milliliter of culture from each of the six individually grown strains was added to create this mixed culture. In a biosafety cabinet, a 300 mg/mL stock of sterile inhibitor in filter-sterilized DMSO was prepared. After this preparation, a working solution of 3 mg/mL of the inhibitor stock in sterile 1% hydroxyethyl cellulose/1% polysorbate 80 was prepared within 4 days of gavaging the mice and stored at room temperature. A low dose of the inhibitor was also prepared, using a working solution of 0.3 mg/mL of the inhibitor stock in sterile 1% hydroxyethyl cellulose/1% polysorbate 80. The vehicle was prepared in the same way with DMSO without inhibitor. […] Two weeks after colonization, mice were administrated by gavage with 3 mg/kg of the inhibitor or vehicle between 6 and 8 a.m. once a day for three consecutive days. After a 10-day washout period, mice were orally administered 30 mg/kg of the inhibitor once a day (same time as above) for three consecutive days, and blood was collected 24 h after the last gavage. A fecal sample was collected before the first gavage. At sacrifice, tissues collected were blood, cecal contents, a fecal pellet, proximal colon, distal small intestine, liver, and kidney. Mice were anesthetized with isoflurane and underwent cardiac puncture for a terminal blood draw, followed by cervical dislocation. Tissues were snap-frozen in liquid nitrogen. Blood was spun down at 8,000 × g for 8 min at room temperature; the resulting serum layer was removed and snap-frozen. All snap-frozen tissues were stored at -80°C until needed. One volume of plasma and 4 volumes of ice-cold extraction solution (HPLC-grade methanol with 2.5 μM d9-TMAO internal standard) were combined and spun at 21,100 × g for 3 min at 4°C. One volume of the resulting supernatant was then mixed with 1 volume of HPLC-grade water. […] was used for peak quantification, and internal standards were utilized as a comparison to calculate plasma concentrations. Statistical significance was calculated using an unpaired t-test.

[2] = Quantification of inhibitor 45 in serum and cecal contents of gnotobiotic mice (LC–MS/MS); assay type: in vivo, Mus musculus C57BL/6; conditions: 24 h after inhibitor gavage
Description: Female C57BL/6 germ-free mice (n = 8 per inhibitor group), 10–12 weeks of age in an isolator, were colonized with 200 µL of mix containing the five bacterial species mentioned above at ~10^8 bacterial cells/mL. Mice were fed a 1% choline diet (Envigo) ad libitum. Two weeks after colonization, mice were administrated by gavage with 3 mg/kg of the inhibitor or vehicle between 6 and 8 a.m. once a day for three consecutive days. After a 10-day washout period, mice were orally administered 30 mg/kg of the inhibitor once a day (same time as above) for three consecutive days, and blood was collected 24 h after the last gavage.
A fecal sample was collected before the first gavage. At sacrifice, tissues collected were blood, cecal contents, a fecal pellet, proximal colon, distal small intestine, liver, and kidney. Mice were anesthetized with isoflurane and underwent cardiac puncture for a terminal blood draw, followed by cervical dislocation. Tissues were snap-frozen in liquid nitrogen. Blood was spun down at 8,000 × g for 8 min at room temperature; the resulting serum layer was removed and snap-frozen. All snap-frozen tissues were stored at −80°C until needed.
A standard curve of inhibitor 45 spiked in commercial mouse serum (Sigma) was prepared. To 50 µL of serum sample, 450 µL of a mixture 75% acetonitrile, 25% methanol, 1% formic acid was added to precipitate proteins. […]

[3] = tested on: panel of commensal bacterial strains; assay: MIC against panel of nine gut commensal bacteria; conditions: read-out: MICs against gut commensal panel

Cc1ccc(-c2cc(C(=O)NCCCCCN3CCCCCC3)c(C)[nH]2)cc1C [Compound 45]
Serum TMAO level relative to vehicle treatment ([1]; gnotobiotic mice, 30 mg/kg oral gavage daily for 3 days, 1% choline diet, 24 h after last dose, P = 0.054): about 60 % of vehicle treatment | Decrease of serum TMAO levels ([1]; gnotobiotic mice, 30 mg/kg, n = 8, P = 0.054): ~ 40% | Decrease of TMAO levels compared to vehicle treatment ([1]; in vivo, mouse model not given): approximately 40% | Concentration in wet cecal mass [2]: 463 pmol/µg | concentration at 24 h ([2]; female, C57BL/6, mouse, serum, oral, 30 mg/kg, limit of detection 1 µM): < 1000 nM | MIC [3]: > 200 µM
